Key:
[1] = Stability in PBS, RP-HPLC analysis; assay type: physicochemical; conditions: pH 7.4, 22 °C, up to 48 h
[2] = system: CHO-hNTS1R cells; test: Confocal microscopy at live CHO-hNTS1R cells; assay type: cell-based, Chinese hamster; conditions: for unspecific binding: 22–25 °C, in the presence of 1 (100-fold excess)

SMILES | stability [1] | unspecific binding [2] | cellular uptake ([2]; 200 nM, 22-25 °C, CHO-hNTS1R cells)
CC[C@H](C)[C@H](NC(=O)[C@H](Cc1ccc(O)cc1)NC(=O)[C@@H]1CCCN1C(=O)[C@H](CCCNC(=N)N)NC(=O)[C@@H](N)CCCNC(=N)NC(=O)NCCOCCOCC[n+]1c(C)cc(/C=C/C=C/c2ccc(N(C)C)cc2)cc1C)C(=O)N[C@@H](CC(C)C)C(=O)O [compound 14] | minor decomposition after incubation times >24 h | very low | 
CC[C@H](C)[C@H](NC(=O)[C@H](Cc1ccc(O)cc1)NC(=O)[C@@H]1CCCN1C(=O)[C@H](CCCNC(=N)NC(=O)NCCOCCOCCNC(=O)CCCCCN1/C(=C/C=C/C=C/C2=[N+](CCCCS(=O)(=O)[O-])c3ccccc3C2(C)C)C(C)(C)c2cc(S(=O)(=O)O)ccc21)NC(=O)[C@@H](N)CCCNC(=N)N)C(=O)N[C@@H](CC(C)C)C(=O)O [compound 17] | excellent stabilities |  | 
CCNC(=O)CCCCCN1/C(=C/C=C/C=C/C2=[N+](CCCCS(=O)(=O)[O-])c3ccccc3C2(C)C)C(C)(C)c2cc(S(=O)(=O)O)ccc21 [compound 20] |  |  | no uptake
CC[C@H](C)[C@H](NC(=O)[C@H](Cc1ccc(O)cc1)NC(=O)[C@@H]1CCCN1C(=O)[C@H](CCCNC(=N)N)NC(=O)[C@@H](N)CCCNC(=N)NC(=O)NCCCCNC(=O)CCCCCN1\C(=C/C=C/C=C/C2=[N+](CCCCS(=O)(=O)[O-])c3ccccc3C2(C)C)C(C)(C)c2cc(S(=O)(=O)O)ccc21)C(=O)N[C@@H](CC(C)C)C(=O)O [compound 6, N-(N-[4-{N-(6-[3,3-Dimethyl-6-sulfonato-2-{5-(3,3-dimethyl-1-[4-sulfonatobutyl]-3H-indol-1-ium-2-yl)penta-2,4-dien-1-ylidene}indolin-1-yl]hexanoyl)amino}butyl]aminocarbonyl)-Arg-Arg-Pro-Tyr-Ile-Leu bis(hydrotrifluoroacetate)] | excellent stabilities | very low | 
CC[C@H](C)[C@H](NC(=O)[C@H](Cc1ccc(O)cc1)NC(=O)[C@@H]1CCCN1C(=O)[C@H](CCCNC(=N)N)NC(=O)[C@@H](N)CCCNC(=N)NC(=O)NCCOCCOCCNC(=O)CCCCCN1\C(=C/C=C/C=C/C2=[N+](CCCCS(=O)(=O)[O-])c3ccccc3C2(C)C)C(C)(C)c2ccccc21)C(=O)N[C@@H](CC(C)C)C(=O)O [compound 11] | excellent stabilities | very low | 

— publication PMC6956362 (ACS Medicinal Chemistry Letters, 2019)
